Experimental data published in patent publication US4792545A, “Boholmycin antibiotic” (Bristol-Myers Company, priority 1986, dated 1988).
Values after ≈ are worked out from the molar mass of the structure shown. Where two headings read alike, the source gives them in different places.

How the values were obtained:
Mycobacterium ranae = experiment: MIC by serial agar dilution; type: cell-based; settings: Mycobacterium ranae, medium B: No. 1001 medium
solubility = type: physicochemical
E. coli NIHJ = experiment: MIC by serial agar dilution; type: cell-based; settings: medium A: Nutrient agar
E. coli K-12 = experiment: MIC by serial agar dilution; type: cell-based
S. aureus A20239 = experiment: MIC by serial agar dilution; type: cell-based; settings: S. aureus A20239, kanamycin resistant strain, medium A: Nutrient agar
P. aeruginosa A20601 = experiment: MIC by serial agar dilution; type: cell-based; settings: P. aeruginosa A20601, kanamycin resistant strain, medium A: Nutrient agar
E. coli JR35/c600 = experiment: MIC by serial agar dilution; type: cell-based
P. mirabilis A9554 = experiment: MIC by serial agar dilution; type: cell-based; settings: medium A: Nutrient agar
S. aureus 209P = experiment: MIC by serial agar dilution; type: cell-based; settings: S. aureus 209P, medium A: Nutrient agar
E. coli Juhl [1] = experiment: in vivo efficacy in mice against experimental infection; settings: mice, i.m. just before challenge, E. coli Juhl, 5 days observation
S. aureus Smith [2] = experiment: MIC by serial agar dilution; type: cell-based; settings: S. aureus Smith, medium A: Nutrient agar
[3] = tested on: experimental infections produced by S. aureus, E. coli and K. pneumoniae; experiment: in vivo activity in mice, Table 5 overall; settings: i.m.
bacteria = experiment: in vitro antibacterial activity, Table 3 panel overall; type: cell-based
Method: The minimum inhibitory concentration (MIC) of boholmycin dihydrochloride tetrahydrate was determined by a serial agar dilution method in comparison with sorbistin A1, streptomycin and kanamycin. Nutrient agar (Difco) was used for all bacteria except for strains of Mycobacterium which were tested in No. 1001 agar.

Mycobacterium phlei = experiment: MIC by serial agar dilution; type: cell-based; settings: Mycobacterium phlei, medium B: No. 1001 medium
S. marcescens A22302 = experiment: MIC by serial agar dilution; type: cell-based
E. coli Juhl [4] = experiment: MIC by serial agar dilution; type: cell-based; settings: medium A: Nutrient agar
[5] = toxic signs in mice, intravenous administration; type: in vivo; settings: up to a dose of 1,000 mg/kg
B. anthracis IID-115 = experiment: microbe, parasite or virus in culture; type: cell-based
basicity = type: physicochemical
S. marcescens A20019 = experiment: MIC by serial agar dilution; type: cell-based
M. luteus PCI-1001 = experiment: MIC by serial agar dilution; type: cell-based; settings: M. luteus PCI-1001, medium A: Nutrient agar
E. coli A20664 = experiment: MIC by serial agar dilution; type: cell-based; settings: E. coli A20664, kanamycin resistant strain, medium A: Nutrient agar
P. vulgaris A9436 = experiment: MIC by serial agar dilution; type: cell-based; settings: medium A: Nutrient agar
S. aureus Smith [6] = experiment: in vivo efficacy in mice against experimental infection; settings: mice, i.m. just before challenge, S. aureus Smith, 5 days observation
E. coli D64 = experiment: stimulating growth of streptomycin-dependent E. coli D64 (paper disc); type: cell-based; settings: for Growth zone vs E. coli D64, hazy growth zone: value in parentheses
Excerpt: The results are shown in Table 4 wherein the term "boholmycin" is used for short in referring to boholmycin dihydrochloride tetrahydrate.

M. flavus D-12 = experiment: MIC by serial agar dilution; type: cell-based
K. pneumoniae A9678 = experiment: MIC by serial agar dilution; type: cell-based; settings: medium A: Nutrient agar
Mycobacterium 607 D46 = experiment: MIC by serial agar dilution; type: cell-based; settings: Mycobacterium 607 D46, kanamycin resistant strain, medium B: No. 1001 medium
B. subtilis ATCC6633 = experiment: MIC by serial agar dilution; type: cell-based; settings: medium A: Nutrient agar
K. pneumoniae D-11 [7] = experiment: in vivo efficacy in mice against experimental infection; settings: mice, i.m. just before challenge, K. pneumoniae D-11, 5 days observation
K. pneumoniae D-11 [8] = experiment: MIC by serial agar dilution; type: cell-based
Mycobacterium 607 D87 = experiment: MIC by serial agar dilution; type: cell-based; settings: Mycobacterium 607 D87, medium B: No. 1001 medium
E. cloacae A20364 = experiment: MIC by serial agar dilution; type: cell-based; settings: E. cloacae A20364, kanamycin resistant strain, medium A: Nutrient agar
stability in solution = type: physicochemical
B. subtilis PCI-219 = experiment: inhibiting growth of B. subtilis PCI-219 (paper disc); type: cell-based; settings: Bacillus subtilis, PCI219, 28° C., 18 hours
Method: Boholmycin dihydrochloride tetrahydrate was tested in comparison with streptomycin, glebomycin, myomycin B and kanamycin in respect to stimulating growth of E. coli D64 and in respect to inhibiting growth of B. subtilis PCI-219. The results are shown in Table 4 wherein the term "boholmycin" is used for short in referring to boholmycin dihydrochloride tetrahydrate.
*^1 8 mm paper disc containing 35 μl of test solution
*^3 Incubation at 28° C. for 18 hours

P. aeruginosa A9843A = experiment: microbe, parasite or virus in culture; type: cell-based
E. cloacae A21006 = experiment: MIC by serial agar dilution; type: cell-based; settings: E. cloacae A21006, kanamycin resistant strain, medium A: Nutrient agar
P. aeruginosa A9930 = experiment: MIC by serial agar dilution; type: cell-based; settings: medium A: Nutrient agar
[9] = Escherichia coli, read-out: MIC
[10] = Staphylococcus aureus, read-out: MIC
[11] = Pseudomonas aeruginosa, read-out: MIC
[12] = Enterobacter cloacae, read-out: MIC

Compound: CNC1C(OC2C(O)C(OC3OC(CO)C(O)C(N)C3O)C(OC(N)=O)C(O)C2OC(N)=O)OCC(OC2OC(C(O)CO)C(O)C(O)C2O)C1O (stereo not drawn) [Boholmycin]
- MIC (Mycobacterium ranae; read-out: MIC): 25 µg/mL (≈ 32.7 µM)
- solubility in methanol and ethanol (solubility; methanol and ethanol): slightly soluble in methanol and ethanol
- solubility in other organic solvents (solubility; other organic solvents): practically insoluble in other organic solvents
- solubility in water (solubility; water): freely soluble in water
- MIC (E. coli NIHJ; [9]): 50 µg/mL (≈ 65.4 µM)
- MIC (E. coli K-12; Escherichia coli, K12, medium A: Nutrient agar, read-out: MIC): 25 µg/mL (≈ 32.7 µM)
- MIC (S. aureus A20239; [10]): > 200 µg/mL
- MIC (P. aeruginosa A20601; [11]): 12.5 µg/mL (≈ 16.3 µM)
- MIC (E. coli JR35/c600; Escherichia coli, JR35/C600): 25 µg/mL (≈ 32.7 µM)
- MIC (P. mirabilis A9554; Proteus mirabilis, read-out: MIC): 50 µg/mL (≈ 65.4 µM)
- MIC (S. aureus 209P; [10]): 200 µg/mL (≈ 262 µM)
- ED50 (E. coli Juhl [1]; Escherichia coli, im, 120 h, read-out: PD50): 100 mg/kg
- MIC (S. aureus Smith [2]; [10]): 200 µg/mL (≈ 262 µM)
- in vivo activity compared with streptomycin and kanamycin [3]: much less active than streptomycin and kanamycin
- antibacterial activity compared with sorbistin A1 (bacteria; Table 3 overall, vs sorbistin A1): comparable to that of sorbistin A1
- antibacterial activity compared with streptomycin or kanamycin (bacteria; Table 3 overall, vs streptomycin or kanamycin): generally weaker than that of streptomycin or kanamycin
- activity against kanamycin and streptomycin-resistant organisms (bacteria; resistant vs sensitive organisms): as active against kanamycin and streptomycin-resistant organisms as against the sensitive ones
- MIC (Mycobacterium phlei; Mycolicibacterium phlei, read-out: MIC): 6.3 µg/mL (≈ 8.24 µM)
- MIC (S. marcescens A22302; Serratia marcescens, A22302): 100 µg/mL (≈ 131 µM)
- MIC (E. coli Juhl [4]; [9]): 100 µg/mL (≈ 131 µM)
- toxic signs [5]: did not show any toxic signs
- MIC (B. anthracis IID-115; Bacillus anthracis, IID115): 25 µg/mL (≈ 32.7 µM)
- basicity (basicity): weakly basic
- MIC (S. marcescens A20019; Serratia marcescens, A20019): 100 µg/mL (≈ 131 µM)
- MIC (M. luteus PCI-1001; Micrococcus luteus, PCI1001, read-out: MIC): 200 µg/mL (≈ 262 µM)
- MIC (E. coli A20664; [9]): 12.5 µg/mL (≈ 16.3 µM)
- MIC (P. vulgaris A9436; Proteus vulgaris, read-out: MIC): 6.3 µg/mL (≈ 8.24 µM)
- ED50 (S. aureus Smith [6]; Staphylococcus aureus, im, 120 h, read-out: PD50): 75 mg/kg
- Growth zone vs E. coli D64, hazy growth zone (E. coli D64; 10 mg/ml, 37° C., 45 hours): 16 mm
- Growth zone vs E. coli D64 (E. coli D64; 40 mg/ml, 37° C., 45 hours): 18 mm
- Growth zone vs E. coli D64, hazy growth zone (E. coli D64; 40 mg/ml, 37° C., 45 hours): 23 mm
- induction/stimulation of growth of streptomycin-dependent E. coli D64 (E. coli D64; result in words): induced the growth
- MIC (M. flavus D-12; Micrococcus flavus, D12, medium A: Nutrient agar, read-out: MIC): 100 µg/mL (≈ 131 µM)
- MIC (K. pneumoniae A9678; Klebsiella pneumoniae, read-out: MIC): 100 µg/mL (≈ 131 µM)
- MIC (Mycobacterium 607 D46; read-out: MIC): 25 µg/mL (≈ 32.7 µM)
- MIC (B. subtilis ATCC6633; Bacillus subtilis, read-out: MIC): 50 µg/mL (≈ 65.4 µM)
- ED50 (K. pneumoniae D-11 [7]; Klebsiella pneumoniae, D11, im, 120 h, read-out: PD50): 65 mg/kg
- MIC (K. pneumoniae D-11 [8]; Klebsiella pneumoniae, D11, medium A: Nutrient agar, read-out: MIC): 6.3 µg/mL (≈ 8.24 µM)
- MIC (Mycobacterium 607 D87; read-out: MIC): 25 µg/mL (≈ 32.7 µM)
- MIC (E. cloacae A20364; [12]): 50 µg/mL (≈ 65.4 µM)
- stability in alkaline solution (stability in solution; alkaline solution): unstable in alkaline solution
- stability in neutral and acidic solution (stability in solution; neutral and acidic solution): reasonably stable in neutral and acidic solution
- zone of inhibition at 10000 µg/mL (B. subtilis PCI-219; 10 mg/ml): 30 mm
- zone of inhibition at 40000 µg/mL (B. subtilis PCI-219; 40 mg/ml): 33 mm
- MIC (P. aeruginosa A9843A; Pseudomonas aeruginosa, A9843A): 200 µg/mL (≈ 262 µM)
- MIC (E. cloacae A21006; [12]): 50 µg/mL (≈ 65.4 µM)
- MIC (P. aeruginosa A9930; [11]): 100 µg/mL (≈ 131 µM)

Compound: CCC(=O)N[C@@H]1C(CO)O[C@H](O[C@@H]([C@H](N)[C@H](O)CO)[C@@H](O)CN)C(O)C1O (stereo partly drawn) [sorbistin A1]
- MIC (Mycobacterium ranae): 50 µg/mL (≈ 126 µM)
- MIC (E. coli NIHJ): 25 µg/mL (≈ 62.9 µM)
- MIC (E. coli K-12; medium A: Nutrient agar): 25 µg/mL (≈ 62.9 µM)
- MIC (S. aureus A20239): 100 µg/mL (≈ 252 µM)
- MIC (P. aeruginosa A20601): 3.1 µg/mL (≈ 7.8 µM)
- MIC (E. coli JR35/c600; E. coli JR35/c600, kanamycin resistant strain, medium A: Nutrient agar): 25 µg/mL (≈ 62.9 µM)
- MIC (P. mirabilis A9554): 50 µg/mL (≈ 126 µM)
- MIC (S. aureus 209P): 50 µg/mL (≈ 126 µM)
- PD50 (E. coli Juhl [1]): 100 mg/kg
- MIC (S. aureus Smith [2]): 50 µg/mL (≈ 126 µM)
- in vivo activity compared with streptomycin and kanamycin [3]: much less active than streptomycin and kanamycin
- MIC (Mycobacterium phlei): 25 µg/mL (≈ 62.9 µM)
- MIC (S. marcescens A22302; S. marcescens A22302, kanamycin resistant strain, medium A: Nutrient agar): 400 µg/mL (≈ 1010 µM)
- MIC (E. coli Juhl [4]): 50 µg/mL (≈ 126 µM)
- MIC (B. anthracis IID-115; B. anthracis IID-115, medium A: Nutrient agar): 50 µg/mL (≈ 126 µM)
- MIC (S. marcescens A20019; S. marcescens A20019, medium A: Nutrient agar): > 200 µg/mL
- MIC (M. luteus PCI-1001): 50 µg/mL (≈ 126 µM)
- MIC (E. coli A20664): 25 µg/mL (≈ 62.9 µM)
- MIC (P. vulgaris A9436): 50 µg/mL (≈ 126 µM)
- PD50 (S. aureus Smith [6]): 50 mg/kg
- MIC (M. flavus D-12; medium A: Nutrient agar): 12.5 µg/mL (≈ 31.5 µM)
- MIC (K. pneumoniae A9678): 100 µg/mL (≈ 252 µM)
- MIC (Mycobacterium 607 D46): 100 µg/mL (≈ 252 µM)
- MIC (B. subtilis ATCC6633): 50 µg/mL (≈ 126 µM)
- PD50 (K. pneumoniae D-11 [7]): 75 mg/kg
- MIC (K. pneumoniae D-11 [8]; medium A: Nutrient agar): 6.3 µg/mL (≈ 15.9 µM)
- MIC (Mycobacterium 607 D87): 50 µg/mL (≈ 126 µM)
- MIC (E. cloacae A20364): 50 µg/mL (≈ 126 µM)
- MIC (P. aeruginosa A9843A; P. aeruginosa A9843A, medium A: Nutrient agar): 6.3 µg/mL (≈ 15.9 µM)
- MIC (E. cloacae A21006): 50 µg/mL (≈ 126 µM)
- MIC (P. aeruginosa A9930): 12.5 µg/mL (≈ 31.5 µM)
